Tests used:
Ikaros = test: Intracellular Ikaros expression in BCMA-bead stimulated anti-BCMA CAR T cells (flow cytometry, MFI); assay type: cell-based, human
Description: (§1) A BCMA-Fc fusion protein containing the extracellular domain of human BCMA and a human IgG1Fc was conjugated to beads by covalently coupling to the surface of commercially available tosyl-activated magnetic beads having a diameter of approximately […] (M-450 beads, ThermoFisher, Waltham Mass.) (see e.g. International published PCT App. No. WO2019/027850). Following incubation, anti-BCMA CAR-expressing T cells were stained with antibodies and analyzed by flow cytometry to assess intracellular levels of Ikaros and Aiolos in CD4+CAR+ or CD8+CAR+ cells, as measured by median fluorescence intensity (MFI). Median fluorescence intensity (MFI) values for Ikaros and Aiolos were normalized and calculated as a percentage relative to vehicle control.

Aiolos = test: Intracellular Aiolos expression in BCMA-bead stimulated anti-BCMA CAR T cells (flow cytometry, MFI); assay type: cell-based, human; details: CD4+CAR+ or CD8+CAR+ cells; 24 or 72 hours; lenalidomide 1000 nM, Compound A 1, 10, 100 nM, Compound B 0.1, 1, 10 nM
Description: as §1

RPMI-8226 target cells [1] = test: Acute co-culture cytokine secretion of anti-BCMA CAR T cells with RPMI-8226; assay type: cell-based, human
Description: Anti-tumor effects of anti-BCMA CAR T cells, alone and in combination with cell immunomodulatory compounds Compound A (iberdomide, (S)-3-[4-(4-morpholin-4-ylmethyl-benzyloxy)-1-oxo-1,3-dihydro-isoindol-2-yl]-piperidine-2,6-dione) or Compound B ((S)-4-(4-(4-(((2-(2,6-dioxopiperidin-3-yl)-1-oxoisoindolin-4-yl)oxy)methyl)benzyl)piperazin-1-yl)-3-fluorobenzonitrile), were assessed in two different BCMA-expressing target multiple myeloma cell lines RPMI-8226 or OPM-2. Anti-BCMA CAR+ T cells were generated as described in Example 1.
The anti-BCMA CAR-expressing T cells were incubated with target cells, RPMI 8226 (BCMA^med human multiple myeloma cell line) or OPM2 cells (BCMA^med human multiple myeloma cell line) target cells, at an E:T ratio of 1:1. The co-culture incubation with target cells was carried out in the presence of Compound A (0.01 nM, 0.1 nM, 1 nM, 10 nM, 100 nM, 1000 nM, or 10,000 nM) or Compound B (0.01 nM, 0.1 nM, 1 nM, 10 nM, 100 nM, 1000 nM, or 10,000 nM).

anti-BCMA CAR T cells = test: Viability and count of anti-BCMA CAR T cells after 7-day chronic stimulation with BCMA-conjugated beads; assay type: cell-based, human
Description: (§2) Cryofrozen anti-BCMA CAR T cells, produced substantially as described in Example 1 and formulated at a 1:1 ratio of CD4+ and CD8^+ T cells, were thawed. To subject cells to chronic stimulation conditions, the anti-BCMA CAR+ T cells were stimulated with 50 μg BCMA conjugated beads (diameter about 4.5 μm from a 50 μg/ml BCMA-conjugated bead composition, generated as described in Example 2) at a ratio of T cells to beads of 1:1 in the presence or absence of Compound A (iberdomide, (S)-3-[4-(4-morpholin-4-ylmethyl-benzyloxy)-1-oxo-1,3-dihydro-isoindol-2-yl]-piperidine-2,6-dione) (1 nM or 10 nM), Compound B ((S)-4-(4-(4-(((2-(2,6-dioxopiperidin-3-yl)-1-oxoisoindolin-4-yl)oxy)methyl)benzyl)piperazin-1-yl)-3-fluorobenzonitrile) (0.1 nM or 1 nM), or DMSO vehicle control. The cells were then incubated at 37° C., 5% CO2 for 7 days.
At day 7, anti-BCMA CAR cells of all the samples were counted using a cellometer machine and stained for flow cytometric analysis. Cells were stained with a viability dye and analyzed by flow cytometry. Viability and count of anti-BCMA CAR T cells was increased in the presence of Compound A or Compound B.
(§3) Cryofrozen anti-BCMA CAR T cells, produced substantially as described in Example 1 and formulated at a 1:1 ratio of CD4+ and CD8+ T cells, were thawed. […] The cells were then incubated at 37° C., 5% CO2 for 7 days.
At day 7, anti-BCMA CAR cells of all the samples were counted using a cellometer machine and stained for flow cytometric analysis. Cells were stained with a viability dye and analyzed by flow cytometry.

RPMI-8226 target cells [2] = test: Rescue: rechallenge of chronically stimulated anti-BCMA CAR T cells with RPMI-8226 in the presence of compound; assay type: cell-based, human; details: Example 4: Compound A 1 or 10 nM, Compound B 0.1 or 1 nM during re-challenge
Description: Anti-BCMA CAR-expressing T cells, produced as described in Example 1, were stimulated with 50 μg BCMA conjugated beads (diameter about 4.5 μm from a 50 μg/ml BCMA-conjugated bead composition) substantially as described in Example 3 to induce chronic stimulation (to produce hypofunctional, exhausted T cells). After the chronic stimulation, the CAR-T cells were rechallenged with RPMI-8226 target cells (labeled with NucLightRed as described in Example 2) at a 1:1 (effector:target) ratio in the presence of (rescued) with Compound A (iberdomide, (S)-3-[4-(4-morpholin-4-ylmethyl-benzyloxy)-1-oxo-1,3-dihydro-isoindol-2-yl]-piperidine-2,6-dione) (1 nM or 10 nM), Compound B ((S)-4-(4-(4-(((2-(2,6-dioxopiperidin-3-yl)-1-oxoisoindolin-4-yl)oxy)methyl)benzyl)piperazin-1-yl)-3-fluorobenzonitrile) (0.1 nM or 1 nM), or DMSO vehicle control.
Killing activity and cytokine production were assessed as described in Example 3.
Studies were undertaken to determine whether Compound A (iberdomide, (S)-3-[4-(4-morpholin-4-ylmethyl-benzyloxy)-1-oxo-1,3-dihydro-isoindol-2-yl]-piperidine-2,6-dione) rescued anti-BCMA CAR T cell function following chronic stimulation. To directly stimulate via CAR engagement to induce chronic stimulation of cells, anti-BCMA CAR T cells were stimulated with BCMA conjugated beads (diameter about 4.5 μm from a 50 μg/ml BCMA-conjugated bead composition, generated as described in Example 9) at a ratio of T cells to beads of 1:1. The cells were then incubated at 37° C., 5% CO2 for 7 days.
Cultures were incubated at 37° C., 5% CO2, and images were taken every 2 hours over 5-7 days with an Essen IncuCyte Zoom live-cell analysis system to track NucLightRed-positive target cells.

PBMCs = details: cultures of PBMCs; cited from earlier work
RPMI-8226 target cells [3] = test: Rechallenge with RPMI-8226 after concurrent compound treatment during chronic stimulation (cytolysis, cytokines); assay type: cell-based, human
Description: as §2
CAR T cells that had been stimulated for 7 days with cultured with 50 μg BCMA-coated magnetic beads concurrently in the presence of the cell immunomodulatory compound were washed free of compound and cells were debeaded. The anti-BCMA CAR T cells that had been stimulated for 7 days with BCMA-conjugated beads in the presence of the compounds were co-cultured with RPMI-8226 target cells (labeled with NucLightRed as described in Example 2) at a 1:1 (effector:target) ratio. Killing activity was monitored over 200 hours by measuring NucLightRed (NLR)-positive target cells. The total cell number of NLR-expressing RPMI targets cells was determined by normalizing cell number over time to the number of cells at the initiation of the co-culture (t=0) for each respective condition.
For cytokine measurements, cell-free supernatants were collected from the cytolytic assay described above 24 hours after plating. Cytokine levels of IFNg, IL-2, and TNFalpha (TNFα) was measured in the supernatant.
as §3
Cytolytic activity was assessed using OPM-2 and RPMI-8226 BCMA expressing target cells transduced with NucLight Red, a red fluorescent protein detectable by microscopy, to allow for measurement of target cell death. Anti-BCMA CAR T cells that had been stimulated for 7 days with BCMA-conjugated beads in the presence of the compounds were co-cultured with RPMI-8226 target cells at a 0.3:1 (effector:target) or 1:1 ratio. Cultures were incubated at 37° C., 5% CO2, and images were taken every 2 hours over 5-7 days with an Essen IncuCyte Zoom live-cell analysis system to track NucLightRed-positive target cells.
For cytokine measurements, cell-free supernatants were collected from the cytolytic assay described above 24 hours after plating. Cytokine levels were measured using IFNg, IL-2, and TNFalpha Meso Scale Discovery cytokine kit (Mesoscale) according to manufacturer instructions. The data was analyzed using GraphPad Prism to calculate absolute changes in cytokine relative to the DMSO vehicle control.

[4] = Example 3: day 7, Compound A 1 or 10 nM, Compound B 0.1 or 1 nM
[5] = Example 7: day 7, lenalidomide 1000 nM, Compound A 0.1, 1 or 10 nM, FIG. 8

Row | Compound | intracellular Ikaros expression (MFI, percentage relative to vehicle control) (Ikaros; CD4+CAR+ or CD8+CAR+ cells, 24 or 72 hours, lenalidomide 1000 nM, Compound A 1, 10, 100 nM, Compound B 0.1, 1, 10 nM) | potency in decreasing Ikaros and Aiolos expression, compared with lenalidomide (Ikaros; stimulated anti-BCMA CAR T cells) | intracellular Aiolos expression (MFI, percentage relative to vehicle control) (Aiolos) | concentration needed for effect on cytokine production, compared with Compound A (RPMI-8226 target cells [1]; acute co-culture) | CAR T cell cytokine production (RPMI-8226 target cells [1]; similar studies, target cell line not stated) | count of anti-BCMA CAR T cells (anti-BCMA CAR T cells; [4]) | viability of anti-BCMA CAR T cells (anti-BCMA CAR T cells; [4]) | rescue of chronically activated CAR T cells (RPMI-8226 target cells [2]) | activation of T cells (PBMCs) | loss of Aiolos and Ikaros (PBMCs) | production of IL-2 and IFN-γ (PBMCs) | count of anti-BCMA CAR T cells (anti-BCMA CAR T cells; [5]) | viability of anti-BCMA CAR T cells (anti-BCMA CAR T cells; [5]) | cytolytic activity after long-term stimulation in the presence of compound (RPMI-8226 target cells [3]; Example 7: E:T 0.3:1, lenalidomide 1000 nM, Compound A 1 or 10 nM, FIG. 9A) | production of IFN-gamma (RPMI-8226 target cells [3]; Example 7: supernatant at 24 hours, relative to DMSO, FIG. 9B) | production of IL-2 (RPMI-8226 target cells [3]; Example 7: supernatant at 24 hours, relative to DMSO, FIG. 9C) | production of TNF-alpha (RPMI-8226 target cells [3]; Example 7: supernatant at 24 hours, relative to DMSO, FIG. 9D)
1 | N#Cc1ccc(N2CCN(Cc3ccc(COc4cccc5c4CN([C@H]4CCC(=O)NC4=O)C5=O)cc3)CC2)c(F)c1 [Compound B, (S)-4-(4-(4-(((2-(2,6-dioxopiperidin-3-yl)-1-oxoisoindolin-4-yl)oxy)methyl)benzyl)piperazin-1-yl)-3-fluorobenzonitrile] | concentration dependent decrease | more potent than lenalidomide | concentration dependent decrease | enhanced effects at lower concentrations compared to Compound A | increased | increased | increased | able to rescue chronically activated CAR T cells to improve functionality | activation of T cells | induces loss of Aiolos and Ikaros | increased production of IL-2 and IFN-γ | – | – | – | – | – | –
2 | Nc1cccc2c1CN(C1CCC(=O)NC1=O)C2=O (centres unmarked) [lenalidomide, reference compound] | – | – | – | – | – | – | – | – | – | – | – | increased | increased | increased cytolytic activity | increased production | increased production | increased production
